# Results taken from US7935706B2, “Nitrogen-containing heterocycle derivatives substituted with cyclic group” (Shionogi & Co., Ltd., priority 2006, dated 2011).
# Like-named read-outs stand apart in the source and are kept apart here.
# Columns and labels:
# NR1/NR2B receptor = biological target: T1, NR1/NR2B receptor (Rattus norvegicus, UniProt P35439+Q00960); test: Test of binding with NMDA receptor (NR1/NR2B receptor): competition with [3H]-Ifenprodil on rat cerebral cortex membrane specimen
# T1 construct: from tissue; host or cells: rat cerebral cortex membranes (male Slc: Wistar rat)
# Experimental: Test of Binding with NMDR Receptor (NR1/NR2B Receptor)
# Using Ifenprodil which is an antagonist specific for a NR1/NR2B subtype receptor as a ligand, an experiment of competition between a receptor and a test compound was performed.
# Using a male Slc: Wistar rat as an animal, a brain was isolated after decapitation, and a cerebral cortex was fractionated. The cerebral cortex was homogenized with a 20-fold amount of an ice-cooled 50 mM Tris/HCl buffer (pH 7.4), and the homogenate was centrifuged at 4° C. and 27,500×g for 10 minutes. The resulting precipitate was suspended in the same buffer, and this was again centrifuged. This operation was repeated for three times, the resulting precipitate was suspended in a buffer, and this was stored at −80° C. Immediately before an experiment, the frozen suspension was thawed at room temperature, this was centrifuged at 4° C. and 27,500×g for 10 minutes, and the resulting precipitate was suspended in a buffer. Further, the suspension was diluted 10-fold with a buffer, and this was used as a membrane specimen in an experiment. In a binding experiment, to 470 μl of the membrane specimen were added […] of each of test compounds having different concentrations, 10 μl of a labeled ligand [^3H]-Ifenprodil and 10 μl GBR-12909, followed by incubation at an ice temperature for 120 minutes. A concentration of [^3H]-Ifenprodil of the labeled ligand was finally 5 nM, and a concentration of GBR-12909 was finally 3 μM. For measuring a total binding amount, DMSO as a solvent was used and, for measuring a non-specific binding amount, 100 μM Ifenprodil was used. GBR-12909 was added in order to block binding of [^3H]-Ifenprodil to non-polyamine-sensitive site. After incubation, a bound formand a free foramwere separated using Whatman GF/C filter (manufactured by Whatman), and the filter was washed with 2.5 ml ice-cooled buffer four times. The filter was immersed in liquid scintillation (Cryasol I, manufactured by Nacalai tesque), and radioactivity (dpm) was measured with a liquid scintillation counter. From a measured value, a binding inhibition rate (%) was obtained by the following equation, and a dose at which binding is inhibited 50% (IC50) was calculated. A formula of GBR-12909 (vanoxerine) is shown below.
# Binding inhibition rate(%)=100−[(binding amount in the presence of test compound−non-specific binding amount)/(total binding amount−non-specific binding amount)]×100
# [1] = biological target: T2, NMDA receptor (NR1 subunit and NR2B subunit) (Mus musculus, UniProt P35438+Q01097); test: Measurement of expression of NMDA receptor and Ca ion influx amount (glutamic acid/glycine-induced, HEK293 cell co-expressing NR1 and NR2B subunits, Fluo-3/AM); format: cell-based
# T2 construct: expressed in transfected cells; host or cells: HEK293 cells, transient transfection with pcDNA3.1 plasmids
# Experimental: Measurement of Expression of NMDA Receptor and Ca Ion Influx Amount
# A complementary DNA (cDNA) of a mouse NMDA receptor subunit was transiently introduced into a HEK293 cell and, after 1 day from introduction, change in a glutamic acid/glycine-induced intracelluar Ca amount was measured using a Ca ion reactive fluorescent coloring matter.
# The HEK293 cell was cultured, and passaged using a modified Dulbecco's Eagle medium (DMEM, low glucose).
# The HEK293 cell (20,000/well) was seeded on a 96-well plate, a NR1 subunit and a NR2B subunit of the NMDA receptor incorporated into the pcDNA3.1 plasmid were transiently introduced into a cell, and the subunits were co-expressed. An introduction amount of a DNA was 0.025 μg in the case of the NR1 subunit, and 0.075 μg in the case of NR2B subunit per well. For the cell after introduction, cell death was inhibited using 50 μM of the NMDA receptor antagonist MK-801.
# For adjusting a test compound and washing a cell, Krebs/Ringer/Hepes buffer (KRH, Ca: 5 mM) was used.
# After 1 day from introduction, the NMDA receptor antagonist MK-801 was washed out using the KRH buffer, and a Ca ion indication fluorescent coloring matter Fluo-3/AM was made to be taken into the cell. Ca ion influx was induced with 20 μM glutamic acid/2 μM glycine. Change in a fluorescent amount due to Ca ion influx into the cell was measured at excitation of 480 nm using a fluorescent imaging system FDSS 3000.
# From a measured value of the test compound, a Ca ion influx inhibition rate (%) was obtained by the following equation, and a dose at which influx is inhibited 50% (IC50) was calculated.
# Ca ion influx inhibition rate(%)=100−[(fluorescent amount in the presence of test compound−background fluorescent amount)/(total fluorescent amount−background fluorescent)]×100
# [2] = same binding test, read-out: IC50 (binding with NR1/NR2B receptor)
# [3] = Ca ion influx induced with 20 μM glutamic acid/2 μM glycine, HEK293 cell with mouse NR1/NR2B, read-out: Ca2+ IC50
# [4] = [3H]-Ifenprodil 5 nM, GBR-12909 3 μM, rat cerebral cortex membranes, ice temperature 120 minutes, read-out: NR2B (IC50 μM)
# [5] = same Ca ion influx test, read-out: IC50 (Ca ion influx inhibition)
# T2 sequence (Q01097 27-1482, other chains not shown): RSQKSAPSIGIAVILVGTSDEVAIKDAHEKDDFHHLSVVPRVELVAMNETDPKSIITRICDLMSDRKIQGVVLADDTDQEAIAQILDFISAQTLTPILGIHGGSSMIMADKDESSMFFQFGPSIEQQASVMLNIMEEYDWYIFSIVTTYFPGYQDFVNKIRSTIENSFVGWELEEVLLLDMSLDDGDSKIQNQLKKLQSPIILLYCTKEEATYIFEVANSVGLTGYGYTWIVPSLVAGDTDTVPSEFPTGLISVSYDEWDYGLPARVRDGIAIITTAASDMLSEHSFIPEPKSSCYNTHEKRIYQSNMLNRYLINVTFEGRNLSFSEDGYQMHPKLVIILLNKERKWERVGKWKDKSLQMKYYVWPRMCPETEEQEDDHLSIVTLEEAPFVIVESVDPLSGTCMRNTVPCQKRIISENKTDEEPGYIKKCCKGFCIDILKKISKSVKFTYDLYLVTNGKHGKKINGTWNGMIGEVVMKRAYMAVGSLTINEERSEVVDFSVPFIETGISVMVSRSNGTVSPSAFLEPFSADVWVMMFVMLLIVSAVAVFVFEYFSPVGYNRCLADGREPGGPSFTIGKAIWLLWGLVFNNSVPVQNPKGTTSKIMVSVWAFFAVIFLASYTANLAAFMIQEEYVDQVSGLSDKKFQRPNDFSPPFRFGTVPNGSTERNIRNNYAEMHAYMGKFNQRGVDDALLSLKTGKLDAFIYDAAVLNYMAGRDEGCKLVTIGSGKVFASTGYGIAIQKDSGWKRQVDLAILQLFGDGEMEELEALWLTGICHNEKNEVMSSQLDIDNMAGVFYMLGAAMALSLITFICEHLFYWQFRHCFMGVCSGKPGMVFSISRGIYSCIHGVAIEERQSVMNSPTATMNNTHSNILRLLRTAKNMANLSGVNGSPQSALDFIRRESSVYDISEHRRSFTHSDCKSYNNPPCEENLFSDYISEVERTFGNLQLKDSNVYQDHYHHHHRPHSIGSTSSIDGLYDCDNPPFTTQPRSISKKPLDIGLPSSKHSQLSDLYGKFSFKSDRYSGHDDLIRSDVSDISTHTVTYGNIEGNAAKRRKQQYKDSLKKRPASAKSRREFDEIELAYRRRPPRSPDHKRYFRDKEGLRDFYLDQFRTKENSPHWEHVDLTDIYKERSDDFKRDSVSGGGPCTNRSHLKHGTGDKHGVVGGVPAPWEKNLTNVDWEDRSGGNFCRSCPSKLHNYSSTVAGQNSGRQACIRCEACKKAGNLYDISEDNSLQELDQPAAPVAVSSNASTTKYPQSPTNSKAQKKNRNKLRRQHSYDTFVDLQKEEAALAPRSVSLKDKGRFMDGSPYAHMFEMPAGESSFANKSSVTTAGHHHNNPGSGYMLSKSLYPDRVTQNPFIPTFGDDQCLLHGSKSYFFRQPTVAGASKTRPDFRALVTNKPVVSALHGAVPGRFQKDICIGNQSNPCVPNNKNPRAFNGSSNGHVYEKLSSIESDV
# T1 sequence (Q00960 27-1482, other chains not shown): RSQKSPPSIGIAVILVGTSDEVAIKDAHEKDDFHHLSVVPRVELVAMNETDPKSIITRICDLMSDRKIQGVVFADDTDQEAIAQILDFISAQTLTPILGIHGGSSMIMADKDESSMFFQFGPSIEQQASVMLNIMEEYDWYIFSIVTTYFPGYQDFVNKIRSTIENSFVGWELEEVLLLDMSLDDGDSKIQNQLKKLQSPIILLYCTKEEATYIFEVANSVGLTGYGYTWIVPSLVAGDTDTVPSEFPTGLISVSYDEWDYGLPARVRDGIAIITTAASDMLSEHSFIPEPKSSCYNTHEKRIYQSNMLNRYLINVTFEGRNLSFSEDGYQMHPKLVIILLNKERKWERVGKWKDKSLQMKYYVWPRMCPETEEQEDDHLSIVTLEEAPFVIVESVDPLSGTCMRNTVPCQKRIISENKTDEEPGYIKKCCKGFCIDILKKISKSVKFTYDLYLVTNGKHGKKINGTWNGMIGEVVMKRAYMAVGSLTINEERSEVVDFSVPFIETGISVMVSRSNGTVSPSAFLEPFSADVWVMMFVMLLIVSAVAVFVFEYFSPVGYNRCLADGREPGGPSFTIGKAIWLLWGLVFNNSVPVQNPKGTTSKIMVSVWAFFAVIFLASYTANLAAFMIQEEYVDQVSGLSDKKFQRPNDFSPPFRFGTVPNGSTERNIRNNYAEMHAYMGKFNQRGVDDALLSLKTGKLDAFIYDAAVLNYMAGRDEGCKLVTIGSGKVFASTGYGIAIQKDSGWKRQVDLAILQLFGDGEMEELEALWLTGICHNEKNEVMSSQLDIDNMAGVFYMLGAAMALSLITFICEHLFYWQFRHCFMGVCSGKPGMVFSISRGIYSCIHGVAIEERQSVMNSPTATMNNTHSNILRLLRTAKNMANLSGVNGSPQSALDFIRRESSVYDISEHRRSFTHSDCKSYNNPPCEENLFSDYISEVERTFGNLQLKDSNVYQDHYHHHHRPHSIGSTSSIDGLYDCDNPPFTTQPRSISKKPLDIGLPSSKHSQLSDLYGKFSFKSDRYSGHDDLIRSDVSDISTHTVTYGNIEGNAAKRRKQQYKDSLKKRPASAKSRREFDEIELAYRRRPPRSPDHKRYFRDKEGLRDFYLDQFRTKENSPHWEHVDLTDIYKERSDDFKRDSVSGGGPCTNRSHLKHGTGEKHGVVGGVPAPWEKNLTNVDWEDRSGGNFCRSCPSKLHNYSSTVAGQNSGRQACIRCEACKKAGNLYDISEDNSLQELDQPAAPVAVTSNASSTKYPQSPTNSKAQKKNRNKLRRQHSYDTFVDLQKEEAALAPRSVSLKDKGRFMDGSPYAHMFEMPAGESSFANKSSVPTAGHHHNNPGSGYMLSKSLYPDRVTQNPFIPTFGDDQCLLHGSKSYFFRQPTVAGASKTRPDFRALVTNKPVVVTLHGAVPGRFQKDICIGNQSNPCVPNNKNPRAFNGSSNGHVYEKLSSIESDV
smiles,measurement,setting,value
C[C@@H]1CN(c2ccc(Cl)cn2)CCN1C(=O)C(=O)Nc1ccc2[nH]c(=O)oc2c1 [Compound I-241],IC50,NR1/NR2B receptor; [2],≤ 0.1 µM
O=C(CC1(O)CCN(c2ccc(F)c(C(F)(F)F)c2)CC1)Nc1ccc2[nH]c(=O)sc2c1 [Compound I-80],IC50,[1]; [3],0.052 µM
O=C(Nc1ccc2[nH]c(=O)oc2c1)C(=O)N1CCCN(c2ccc(Cl)c(F)c2)CC1 [Compound I-154],IC50,NR1/NR2B receptor; [4],0.044 µM
same,IC50,[1]; [3],0.004 µM
O=C(Nc1ccc2[nH]c(=O)sc2c1)C(=O)N1CCN(c2ccc(Cl)cc2)CC1 [Compound I-90],IC50,NR1/NR2B receptor; [4],0.026 µM
same,IC50,[1]; [5],≤ 0.1 µM
O=C1Cc2cc(NC(=O)C(=O)N3CCN(c4ccc(C(F)(F)F)c(F)c4)CC3)ccc2N1 [Compound I-201],IC50,NR1/NR2B receptor; [4],0.074 µM
O=C(CC1CCN(c2ccc(C(F)(F)F)cc2)CC1)Nc1ccc2[nH]c(=O)oc2c1 [Compound I-8],IC50,[1]; [3],0.048 µM
O=C(CC1(O)CCN(c2ccc(F)c(C(F)(F)F)c2)CC1)Nc1ccc2[nH]c(=O)oc2c1 [Compound I-81],IC50,[1]; [3],0.062 µM
O=C(C=C1CCN(c2ccc(C(F)(F)F)cc2)CC1)Nc1ccc2[nH]c(=O)oc2c1 [Compound I-16],IC50,[1]; [3],0.037 µM
O=C(C=C1CCN(c2ccc(F)c(F)c2)CC1)Nc1ccc2[nH]c(=O)oc2c1 [Compound I-192],IC50,NR1/NR2B receptor; [4],0.052 µM
O=C(NCC1CCN(c2ccc(Cl)c(F)c2)CC1)c1ccc2[nH]c(=O)oc2c1 [Compound I-140],IC50,[1]; [3],0.044 µM
O=C(C=C1CCN(c2ccc(Cl)c(F)c2)CC1)Nc1ccc2[nH]c(=O)oc2c1 [Compound I-188],IC50,NR1/NR2B receptor; [4],0.021 µM
O=C(CC1=CCN(c2ccc(C(F)(F)F)cc2)CC1)Nc1ccc2[nH]c(=O)oc2c1 [Compound I-53],IC50,[1]; [3],0.067 µM
CC(C)c1ccc(N2CCC(O)(CC(=O)Nc3ccc4[nH]c(=O)oc4c3)CC2)cc1 [Compound I-40],IC50,[1]; [3],0.015 µM
C[C@H]1CN(C(=O)C(=O)Nc2ccc3[nH]c(=O)oc3c2)CCN1c1ccc(Cl)cc1 [Compound I-176],IC50,[1]; [5],≤ 0.1 µM
O=C(CC1CCN(c2ccc(OC(F)F)cc2)CC1)Nc1ccc2[nH]c(=O)oc2c1 [Compound I-239],IC50,NR1/NR2B receptor; [2],≤ 0.1 µM
O=C(CC1CCN(c2ccc(OC(F)(F)F)cc2)CC1)Nc1ccc2[nH]c(=O)oc2c1 [Compound I-226],IC50,NR1/NR2B receptor; [2],≤ 0.1 µM
O=C(Nc1cnc2[nH]c(=O)oc2c1)C(=O)N1CCN(c2ccc(Cl)cc2)CC1 [Compound I-76],IC50,[1]; [5],≤ 0.1 µM
C[C@@H]1CN(C(=O)C(=O)Nc2ccc3[nH]c(=O)oc3c2)CCN1c1ccc(OC(F)(F)F)cc1 [Compound I-212],IC50,[1]; [5],≤ 0.1 µM
O=C(Nc1ccc2[nH]c(=O)[nH]c2c1)C(=O)N1CCN(c2ccc(F)cc2)CC1 [Compound I-85],IC50,NR1/NR2B receptor; [4],0.067 µM
O=C(Nc1ccc2[nH]c(=O)oc2c1)C(=O)C1CCN(c2ccc(C(F)(F)F)cc2)CC1 [Compound I-26],IC50,[1]; [3],0.048 µM
O=C(Nc1cnc2[nH]c(=O)oc2c1)C(=O)N1CCN(c2ccc(F)c(Cl)c2)CC1 [Compound I-111],IC50,[1]; [5],≤ 0.1 µM
O=C(CC1(O)CCN(c2ccc(Cl)cc2)CC1)Nc1ccc2[nH]c(=O)oc2c1 [Compound I-34],IC50,[1]; [3],0.02 µM
O=C(Nc1cnc2[nH]c(=O)oc2c1)C(=O)N1CCCN(c2ccc(Cl)c(F)c2)CC1 [Compound I-155],IC50,[1]; [3],0.053 µM
COc1ccc(N2CCN(C(=O)C(=O)Nc3ccc4[nH]c(=O)oc4c3)CC2)cc1F [Compound I-232],IC50,NR1/NR2B receptor; [2],≤ 0.1 µM
O=C(NCC1CCN(c2ccc(C(F)(F)F)cc2)CC1)c1ccc2[nH]c(=O)oc2c1 [Compound I-11],IC50,[1]; [3],0.069 µM
